Experimental data reported in US10654808B2, “Tyrosine kinase inhibitor and pharmaceutical composition comprising same” (GUANGDONG RAYNOVENT BIOTECH CO., LTD., priority 2015, dated 2020).

Columns and labels:
VEGFR2 = target: T1, VEGFR2 (Homo sapiens, UniProt P35968); experiment: Z'-LYTE in vitro enzyme activity assay, VEGFR2; type: biochemical; settings: 100 μM ATP, 60 minutes, room temperature; read-out: IC50 detected by Z'-LYTE, VEGFR2
T1 construct: purchased Life technology
Method in brief: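 Reaction with 3 nM VEGFR2, 2 μM Tyr1 peptide and 100 μM ATP in HEPES pH 7.5/MgCl2/EGTA/BRIJ-35, 1% DMSO, 60 min at room temperature; development reagent then 60 min at 23° C. Compounds tested at 11 threefold dilutions, 10 μM–0.17 nM final, in duplicate; IC50 from 4-parameter fit of inhibition.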

FGFR1 = target: T2, FGFR1 (Homo sapiens, UniProt P11362); experiment: Z'-LYTE in vitro enzyme activity assay, FGFR1; type: biochemical; settings: 25 μM ATP, 60 minutes, room temperature; read-out: IC50 detected by Z'-LYTE, FGFR1
T2 construct: purchased Life technology
Method in brief: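 Z′-LYTE FRET assay with 1 nM FGFR1, 2 μM Tyr4 peptide and 25 μM ATP in HEPES pH 7.5 with Mg/Mn, 60 min at room temperature, then development 60 min at 23 °C. Compounds tested at 11 concentrations from 10 μM to 0.17 nM in 1% DMSO. IC50 from 4-parameter fit of inhibition.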

PDGFRB = target: T3, PDGFRB (Homo sapiens, UniProt P09619); experiment: Z'-LYTE in vitro enzyme activity assay, PDGFRB; type: biochemical; settings: 100 μM ATP, 60 minutes, room temperature; read-out: IC50 detected by Z'-LYTE, PDGFRB
T3 construct: purchased Millipore
Method in brief: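 Z′-LYTE FRET kinase assay using 40 nM PDGFRB, 2 μM Tyr4 peptide and 100 μM ATP in HEPES pH 7.5 with Mg2+/Mn2+ and 1% DMSO. The reaction ran 60 min at room temperature, followed by development for 60 min at 23 °C. IC50 values came from 4-parameter fits over 11 concentrations (10 μM–0.17 nM).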

HUVEC = experiment: CellTiter-Glo luminescent cell viability assay, HUVEC stimulated with hVEGF-165; type: cell-based; settings: Homo sapiens, hVEGF-165 20 ng/ml, 72 hours, read-out: IC50 detected by CellTiter-Glo, HUVEC
Protocol: The intracellular ATP changes were measured by CellTiter-Glo® Luminescent Cell Viability Assay. The IC50 value of the compounds was used as an index to evaluate the inhibitory effect of the compounds on HUVEC in vitro.
HUVEC cell line (ATCC), EGM-2 BulletKit (Lonza), hVEGF-165 (Cell Signaling), trypsin (Invitrogen), DPBS (Hyclone), 384 cell plate (Greiner), 384 compound plate (Greiner), CO2 incubator (Thermo), centrifuge (Eppendorf), Vi-cell cell counter (Beckman Coulter), Bravo Automatic Liquid Workstation (Agilent), Envision (Perkin Elmer)
B: Cell plating: HUVEC cells were resuspended with starved medium (only containing 2% FBS and 0.1% GA-1000) and diluted to a concentration of 20,000/mL. The diluted cells were added to a 384 plate (Greiner), 50 μl per well. The cell plates were placed in a 37° C., 5% CO2 incubator overnight.
C: Drug addition: the test compounds were diluted 4 times to obtain a total of 10 doses at a final concentration of 10 uM to 0.038 nM, two parallel wells. The middle plate was added with 47.6 uL of starved medium per well. 2.4 μl of compounds was transferred from a gradient dilution compound plate to a middle plate and mixed well. 5 μl of liquid was transferred from the middle plate to a cell plate. Incubate for 1 hour at 37° C. in a 5% CO2 incubator, 5 μl of starved medium containing hVEGF-165 (the final concentration was 20 ng/ml) and Heparin (the final concentration was 1 ng/m) were added and incubated at 37° C. in a 5% CO2 incubator for 72 hours.
D: After 72 hours, 30 μl of assay reagents was added and incubated at room temperature for 10-30 minutes, Envision was used to read the plate.
The reading was converted into suppression rate (%) (Max−Sample)/(Max−Min)*100%. Parameter curve fitting (Model 205 in XLFIT5, iDBS) was used to measure to obtain IC50 data.

T3 sequence (P09619 33-1106): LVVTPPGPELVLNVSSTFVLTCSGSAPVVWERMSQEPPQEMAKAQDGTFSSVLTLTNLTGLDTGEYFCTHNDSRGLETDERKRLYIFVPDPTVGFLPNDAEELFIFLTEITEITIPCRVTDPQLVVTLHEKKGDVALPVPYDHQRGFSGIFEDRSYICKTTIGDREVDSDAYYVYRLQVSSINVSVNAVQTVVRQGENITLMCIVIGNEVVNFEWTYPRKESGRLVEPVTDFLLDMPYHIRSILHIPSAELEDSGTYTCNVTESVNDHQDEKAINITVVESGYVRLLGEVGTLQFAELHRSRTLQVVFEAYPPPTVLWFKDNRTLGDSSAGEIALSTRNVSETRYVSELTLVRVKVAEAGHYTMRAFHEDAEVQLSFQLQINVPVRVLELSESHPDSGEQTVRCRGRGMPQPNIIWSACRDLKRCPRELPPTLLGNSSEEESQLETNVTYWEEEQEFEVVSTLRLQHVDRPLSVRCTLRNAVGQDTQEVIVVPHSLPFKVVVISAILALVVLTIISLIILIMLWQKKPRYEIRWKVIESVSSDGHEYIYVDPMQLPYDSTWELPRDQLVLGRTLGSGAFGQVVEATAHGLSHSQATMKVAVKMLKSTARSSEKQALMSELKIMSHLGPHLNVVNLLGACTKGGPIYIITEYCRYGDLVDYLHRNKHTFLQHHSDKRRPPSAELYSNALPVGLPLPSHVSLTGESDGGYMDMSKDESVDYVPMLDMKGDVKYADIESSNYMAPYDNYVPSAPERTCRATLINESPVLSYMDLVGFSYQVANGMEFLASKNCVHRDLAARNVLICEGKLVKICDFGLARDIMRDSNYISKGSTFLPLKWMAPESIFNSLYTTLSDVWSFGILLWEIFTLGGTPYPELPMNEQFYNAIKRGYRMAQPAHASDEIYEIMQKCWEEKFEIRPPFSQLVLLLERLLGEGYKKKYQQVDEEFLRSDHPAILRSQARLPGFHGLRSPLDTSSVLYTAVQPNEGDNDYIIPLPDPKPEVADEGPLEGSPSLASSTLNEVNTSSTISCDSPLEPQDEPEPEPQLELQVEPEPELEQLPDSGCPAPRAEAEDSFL
T1 sequence (P35968 20-1356): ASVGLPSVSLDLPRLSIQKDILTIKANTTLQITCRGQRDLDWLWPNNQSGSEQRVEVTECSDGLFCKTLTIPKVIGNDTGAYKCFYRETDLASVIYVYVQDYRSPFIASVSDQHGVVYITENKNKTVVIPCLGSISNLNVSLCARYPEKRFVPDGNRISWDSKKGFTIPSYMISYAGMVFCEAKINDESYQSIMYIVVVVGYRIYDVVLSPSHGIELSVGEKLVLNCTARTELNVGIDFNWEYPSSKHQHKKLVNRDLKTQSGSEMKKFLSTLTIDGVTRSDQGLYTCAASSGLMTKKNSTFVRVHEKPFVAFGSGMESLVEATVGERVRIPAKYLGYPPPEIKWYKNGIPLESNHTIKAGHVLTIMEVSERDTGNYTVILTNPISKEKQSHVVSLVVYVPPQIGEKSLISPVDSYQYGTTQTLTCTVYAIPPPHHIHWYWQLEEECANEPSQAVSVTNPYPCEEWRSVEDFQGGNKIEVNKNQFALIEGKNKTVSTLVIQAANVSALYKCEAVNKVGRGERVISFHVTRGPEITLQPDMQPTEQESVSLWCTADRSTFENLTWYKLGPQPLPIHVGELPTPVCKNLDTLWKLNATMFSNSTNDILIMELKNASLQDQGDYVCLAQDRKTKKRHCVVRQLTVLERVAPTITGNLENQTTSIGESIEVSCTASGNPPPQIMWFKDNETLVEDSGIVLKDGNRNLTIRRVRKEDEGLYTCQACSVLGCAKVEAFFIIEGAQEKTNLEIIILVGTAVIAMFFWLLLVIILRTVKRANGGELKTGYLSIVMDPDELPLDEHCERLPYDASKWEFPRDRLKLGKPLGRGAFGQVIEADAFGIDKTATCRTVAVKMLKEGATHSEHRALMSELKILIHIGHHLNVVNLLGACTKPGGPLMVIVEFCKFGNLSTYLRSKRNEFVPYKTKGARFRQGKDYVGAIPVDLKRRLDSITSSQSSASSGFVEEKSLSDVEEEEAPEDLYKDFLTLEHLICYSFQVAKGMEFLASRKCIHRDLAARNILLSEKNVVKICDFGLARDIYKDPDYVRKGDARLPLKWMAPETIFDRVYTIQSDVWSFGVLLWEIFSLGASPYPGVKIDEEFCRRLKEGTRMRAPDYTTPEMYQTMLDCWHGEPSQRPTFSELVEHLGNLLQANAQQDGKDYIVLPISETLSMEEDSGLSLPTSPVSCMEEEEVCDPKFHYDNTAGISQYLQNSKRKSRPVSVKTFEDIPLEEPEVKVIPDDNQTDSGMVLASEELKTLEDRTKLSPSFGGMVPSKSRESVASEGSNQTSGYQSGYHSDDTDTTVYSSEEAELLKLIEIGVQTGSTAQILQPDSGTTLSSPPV
T2 sequence (P11362 22-822): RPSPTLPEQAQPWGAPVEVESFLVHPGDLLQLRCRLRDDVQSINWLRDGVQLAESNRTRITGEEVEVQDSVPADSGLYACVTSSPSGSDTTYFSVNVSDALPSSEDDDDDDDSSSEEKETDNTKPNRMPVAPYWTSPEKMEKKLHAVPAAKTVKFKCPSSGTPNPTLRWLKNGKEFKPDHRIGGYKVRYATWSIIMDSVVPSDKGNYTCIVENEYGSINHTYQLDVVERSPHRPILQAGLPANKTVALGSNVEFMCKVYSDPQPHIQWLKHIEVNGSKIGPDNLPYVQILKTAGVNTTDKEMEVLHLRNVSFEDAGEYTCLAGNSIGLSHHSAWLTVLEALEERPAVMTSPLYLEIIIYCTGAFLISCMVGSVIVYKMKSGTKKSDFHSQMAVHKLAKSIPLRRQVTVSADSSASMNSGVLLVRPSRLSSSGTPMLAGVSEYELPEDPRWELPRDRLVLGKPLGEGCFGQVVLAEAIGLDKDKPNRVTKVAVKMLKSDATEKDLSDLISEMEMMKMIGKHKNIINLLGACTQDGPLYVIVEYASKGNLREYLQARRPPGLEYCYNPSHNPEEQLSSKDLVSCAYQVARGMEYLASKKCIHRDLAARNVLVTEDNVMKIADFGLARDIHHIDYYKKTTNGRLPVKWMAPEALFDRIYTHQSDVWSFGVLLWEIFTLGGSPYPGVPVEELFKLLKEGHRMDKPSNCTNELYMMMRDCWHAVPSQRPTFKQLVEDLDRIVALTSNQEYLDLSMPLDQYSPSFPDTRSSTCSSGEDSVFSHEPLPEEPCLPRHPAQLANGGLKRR

Row | SMILES | IC50 (VEGFR2) [µM] | IC50 (FGFR1) [µM] | IC50 (PDGFRB) [µM] | IC50 (HUVEC) [µM]
1 | COc1cc2nccc(Oc3ccc(NC(=S)Nc4ccccc4)c(Cl)c3)c2cc1C(N)=O [Example 2] | 0.05 to 0.2 | 0.2 to 1 | 0.05 to 0.2 | < 0.1
2 | COc1cc2nccc(Oc3ccc(NC(=S)NC4CCC4)c(Cl)c3)c2cc1C(N)=O [Example 6] | < 0.05 | 0.2 to 1 | 0.05 to 0.2 | < 0.1
3 | COc1cc2nccc(Oc3ccc(NC(=S)NCC(F)F)c(Cl)c3)c2cc1C(N)=O [Example 12] | < 0.05 | 0.05 to 0.2 | 0.05 to 0.2 | < 0.1
4 | COc1cc2nccc(Oc3ccc(NC(=S)NCC(F)(F)F)c(Cl)c3)c2cc1C(N)=O [Example 16] | < 0.05 | 0.2 to 1 | 0.05 to 0.2 | < 0.1
5 | COc1cc2nccc(Oc3ccc(NC(=S)N[C@H](C)CO)c(Cl)c3)c2cc1C(N)=O [Example 21] | < 0.05 | 0.2 to 1 | 0.05 to 0.2 | < 0.1
6 | CNC(=S)Nc1ccc(Oc2ccnc3cc(OC)c(C(N)=O)cc23)cc1Cl [Example 28] | < 0.05 | 0.05 to 0.2 | < 0.05 | < 0.1
7 | COc1cc2nccc(Oc3ccc(NC(=S)NC4CC4)c(Cl)c3)c2cc1C(=O)NO [Example 50] | < 0.05 | 0.2 to 1 | 0.05 to 0.2 | 0.1 to 1
8 | COc1cc2nccc(Oc3ccc(NC(=S)N(C)C)c(Cl)c3)c2cc1C(N)=O [Example 55] | 0.05 to 0.2 | 0.05 to 0.2 | 0.2 to 1 | 0.1 to 1
9 | CCNC(=S)Nc1ccc(Oc2ccnc3cc(OC)c(C(N)=O)cc23)cc1Cl [Example 56] | < 0.05 | 0.05 to 0.2 | < 0.05 | < 0.1
10 | CCOCCCOc1cc2nccc(Oc3ccc(NC(=S)NC4CC4)c(Cl)c3)c2cc1C(N)=O [Example 58] | < 0.05 | 0.2 to 1 | 0.05 to 0.2 | 0.1 to 1
11 | COc1cc2nccc(Oc3ccc(NC(=S)NCC4CC4)c(Cl)c3)c2cc1C(N)=O [Example 59] | < 0.05 | 0.2 to 1 | 0.05 to 0.2 | 0.1 to 1
12 | COc1cc2nccc(Oc3ccc(NC(=S)Nc4cnn(C(C)C)c4)c(Cl)c3)c2cc1C(N)=O [Example 70] | < 0.05 | 0.2 to 1 | < 0.05 | < 0.1
13 | COc1cc2nccc(Oc3ccc(NC(=S)NC4CC4)c(Cl)c3F)c2cc1C(N)=O [Example 78] | < 0.05 | 0.05 to 0.2 | < 0.05 | < 0.1
14 | COc1cc2nccc(Oc3ccc(NC(=S)N4CC(F)(F)C4)c(Cl)c3F)c2cc1C(N)=O [Example 95] | < 0.05 | 0.05 to 0.2 | 0.05 to 0.2 | 0.1 to 1
15 | COc1cc2nccc(Oc3ccc(NC(=S)N4CCCC4)c(Cl)c3F)c2cc1C(N)=O [Example 98] | < 0.05 | < 0.05 | 0.05 to 0.2 | 0.1 to 1
16 | COc1cc2nccc(Oc3ccc(NC(=S)N4CC[C@H](F)C4)c(Cl)c3F)c2cc1C(N)=O [Example 103] | < 0.05 | 0.05 to 0.2 | 0.2 to 1 | 0.1 to 1
17 | [2H]C([2H])([2H])NC(=S)Nc1ccc(Oc2ccnc3cc(OC)c(C(N)=O)cc23)c(F)c1Cl [Example 112] | < 0.05 | < 0.05 | < 0.05 | < 0.1
18 | COc1cc2nccc(Oc3ccc(NC(=S)N4CC(F)C4)c(Cl)c3F)c2cc1C(N)=O [Example 123] | < 0.05 | < 0.05 | 0.05 to 0.2 | 0.1 to 1
19 | CCNC(=S)Nc1ccc(Oc2ccnc3cc(OC)c(C(N)=O)cc23)c(F)c1Cl [Example 124] | < 0.05 | < 0.05 | < 0.05 | < 0.1
20 | Cc1c(OC[C@H](C)O)cn2ncnc(Oc3ccc(NC(=O)NC4CC4)c(Cl)c3)c12 [Example 127] | < 0.05 |  |  | < 0.1

Row | SMILES | IC50 (VEGFR2) [µM] | IC50 (FGFR1) [µM] | IC50 (PDGFRB) [µM] | IC50 (HUVEC) [µM]
21 | COc1cc2nccc(Oc3ccc(Nc4c(NC5CC5)c(=O)c4=O)c(Cl)c3)c2cc1C(N)=O [Example 130] | 0.2 to 1 |  |  | 0.1 to 1
22 | COc1cc2nccc(Oc3ccc4nc(NC5CC5)sc4c3)c2cc1C(N)=O [Example 131] | 0.2 to 1 |  |  | 0.1 to 1
23 | COCCOc1cc2nccc(Oc3ccc(NC(=S)NC4CC4)c(Cl)c3)c2cc1C(N)=O [Example 174] | < 0.05 | 0.2 to 1 | < 0.05 | < 0.1
24 | COc1cc2nccc(Oc3ccc4c(C(=O)NC5CC5)coc4c3)c2cc1C(N)=O [Example 185] | < 0.05 | 0.05 to 0.2 | 0.2 to 1 | < 0.1
25 | COc1cc2nccc(Oc3cc(Cl)c4c(C(=O)NC5CC5)coc4c3)c2cc1C(N)=O [Example 196] | 0.2 to 1 | 0.2 to 1 | 0.2 to 1 | 
26 | COc1cc2nccc(Oc3cc4occ(C(=O)N5CCCC5)c4cc3Cl)c2cc1C(N)=O [Example 197] | 0.2 to 1 | 0.2 to 1 | 0.2 to 1 | 
27 | COc1cc2nccc(Oc3cc4occ(C(=O)N5CC(F)(F)C5)c4cc3Cl)c2cc1C(N)=O [Example 198] | 0.2 to 1 | 0.2 to 1 | 0.2 to 1 | 
28 | COc1cc2nccc(Oc3cc4occ(C(=O)NC5CC5)c4cc3Cl)c2cc1C(N)=O [Example 199] | 0.05 to 0.2 | 0.2 to 1 | < 0.05 | 
29 | COc1cc2nccc(Oc3ccc4c(C(=O)N5CC[C@@H](O)C5)coc4c3)c2cc1C(N)=O [Example 201] | 0.2 to 1 | 0.2 to 1 | 0.2 to 1 | 
30 | COc1cc2nccc(Oc3ccc4c(C(=O)N5CC[C@@H](F)C5)coc4c3)c2cc1C(N)=O [Example 202] | 0.2 to 1 | 0.2 to 1 | 0.2 to 1 | 
31 | COc1cc2nccc(Oc3ccc4c(C(=O)N5CC[C@H](O)C5)coc4c3)c2cc1C(N)=O [Example 203] | 0.2 to 1 | 0.2 to 1 | 0.05 to 0.2 | 
32 | COc1cc2nccc(Oc3cc(Br)c4c(C(=O)N5CC(F)(F)C5)coc4c3)c2cc1C(N)=O [Example 204] | 0.2 to 1 | 0.2 to 1 | 0.2 to 1 | 
33 | COc1cc2nccc(Oc3ccc4c(C(=O)N5CC[C@H](F)C5)coc4c3)c2cc1C(N)=O [Example 205] | 0.2 to 1 | 0.2 to 1 | 0.2 to 1 | 
34 | COc1cc2nccc(Oc3ccc4c(C(=O)N5CCCC5)coc4c3)c2cc1C(N)=O [Example 206] | 0.2 to 1 | 0.2 to 1 | 0.2 to 1 | 
35 | CCNC(=O)c1coc2cc(Oc3ccnc4cc(OC)c(C(N)=O)cc34)c(F)cc12 [Example 208] | 0.05 to 0.2 | 0.2 to 1 | < 0.05 | 
36 | [2H]C([2H])([2H])NC(=O)c1coc2cc(Oc3ccnc4cc(OC)c(C(N)=O)cc34)c(Cl)cc12 [Example 211] | 0.05 to 0.2 | 0.2 to 1 | < 0.05 | 
37 | Cn1cncc1-c1ccc2c(Oc3ccc(NC(=S)NC4CC4)c(Cl)c3)ccnc2c1 [Example 213] | < 0.05 | 0.05 to 0.2 | 0.05 to 0.2 | 
38 | O=C(Nc1ccc(Oc2ccnc3cc(-c4cncn4-c4ccccc4)ccc23)c(F)c1Cl)NC1CC1 [Example 227] | 0.05 to 0.2 | 0.2 to 1 | 0.2 to 1 | 
39 | O=C(Nc1ccc(Oc2ccnc3cc(-c4cn(-c5ccccc5)cn4)ccc23)c(F)c1Cl)NC1CC1 [Example 228] | 0.2 to 1 | 0.2 to 1 | 0.2 to 1 | 
40 | Cc1nc(-c2ccc3c(Oc4ccc(NC(=O)NC5CC5)c(Cl)c4F)ccnc3c2)cn1C [Example 229] | < 0.05 | < 0.05 | < 0.05 | 
